What was measured:
Test in all cases: cells
[1] = tested on: TCC-SUP; format: functional, cell-based, Homo sapiens; details: Homo sapiens, TCC-SUP;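 note: growth inhibition of TCC-SUP cells, read out with a cell viability assay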
Description: SANGER: Inhibition of human TCCSUP cell growth in a cell viability assay.

[2] = tested on: HCC1395; format: functional, cell-based, Homo sapiens; details: Homo sapiens, HCC1395;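 note: growth inhibition of HCC1395 cells, read out by a cell viability assay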
Description: SANGER: Inhibition of human HCC1395 cell growth in a cell viability assay.

[3] = tested on: SW1990; format: functional, cell-based, Homo sapiens; details: Homo sapiens, SW1990;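 note: cell growth inhibition determined with a viability assay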
Description: SANGER: Inhibition of human SW1990 cell growth in a cell viability assay.

[4] = tested on: NCI-H2347; format: functional, cell-based, Homo sapiens; details: Homo sapiens, NCI-H2347;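 note: growth inhibition of the cell line, read out with a cell viability assay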
Description: SANGER: Inhibition of human NCI-H2347 cell growth in a cell viability assay.

[5] = tested on: KYSE-70 cell line; format: functional, cell-based, Homo sapiens; details: Homo sapiens, KYSE-70;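 note: cell viability assay read-out, with IC50 expressing suppression of KYSE-70 cell growth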
Description: SANGER: Inhibition of human KYSE-70 cell growth in a cell viability assay.

[6] = tested on: COLO-824; format: functional, cell-based, Homo sapiens; details: Homo sapiens, COLO-824
Description: SANGER: Inhibition of human COLO-824 cell growth in a cell viability assay.

[7] = tested on: HCC1187; format: functional, cell-based, Homo sapiens; details: Homo sapiens, HCC1187;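 note: growth inhibition of HCC1187 cells, read out with a cell viability assay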
Description: SANGER: Inhibition of human HCC1187 cell growth in a cell viability assay.

[8] = tested on: SAOS-2; format: functional, cell-based, Homo sapiens; details: Homo sapiens, SAOS-2;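 note: growth inhibition of human Saos-2 cells determined by a cell viability assay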
Description: SANGER: Inhibition of human Saos-2 cell growth in a cell viability assay.

[9] = tested on: BPH-1; format: functional, cell-based, Homo sapiens; details: Homo sapiens, BPH-1;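 note: cell viability assay measuring growth inhibition of human BPH-1 cells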
Description: SANGER: Inhibition of human BPH-1 cell growth in a cell viability assay.

[10] = tested on: NCI-H661; format: functional, cell-based, Homo sapiens; details: Homo sapiens, NCI-H661;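 note: cell viability assay read-out, IC50 being the concentration that inhibits growth of the cells by half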
Description: SANGER: Inhibition of human NCI-H661 cell growth in a cell viability assay.

[11] = tested on: D-247MG; format: functional, cell-based, Homo sapiens; details: Homo sapiens, D-247MG
Description: SANGER: Inhibition of human D-247MG cell growth in a cell viability assay.

[12] = tested on: C3A; format: functional, cell-based, Homo sapiens; details: Homo sapiens, C3A;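 note: growth inhibition of C3A human cells, quantified with a cell viability readout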
Description: SANGER: Inhibition of human C3A cell growth in a cell viability assay.

[13] = tested on: SF-126; format: functional, cell-based, Homo sapiens; details: Homo sapiens, SF-126;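 note: growth inhibition of human SF126 cells, read out with a cell viability assay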
Description: SANGER: Inhibition of human SF126 cell growth in a cell viability assay.

[14] = tested on: RVH-421; format: functional, cell-based, Homo sapiens; details: Homo sapiens, RVH-421
Description: SANGER: Inhibition of human RVH-421 cell growth in a cell viability assay.

[15] = tested on: EOL1; format: functional, cell-based; details: Homo sapiens;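 note: growth inhibition of EoL-1 cells, read out by a cell viability assay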
Description: SANGER: Inhibition of human EoL-1-cell cell growth in a cell viability assay.

[16] = tested on: NCI-H2087; format: functional, cell-based, Homo sapiens; details: Homo sapiens, NCI-H2087;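 note: growth inhibition determined with a cell viability readout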
Description: SANGER: Inhibition of human NCI-H2087 cell growth in a cell viability assay.

[17] = tested on: SW626; format: functional, cell-based, Homo sapiens; details: Homo sapiens, SW626;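 note: growth inhibition of SW626 cells, measured with a cell viability assay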
Description: SANGER: Inhibition of human SW626 cell growth in a cell viability assay.

[18] = tested on: SK-LU-1; format: functional, cell-based, Homo sapiens; details: Homo sapiens, SK-LU-1;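 note: cell viability assay measuring growth inhibition of human SK-LU-1 cells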
Description: SANGER: Inhibition of human SK-LU-1 cell growth in a cell viability assay.

[19] = tested on: OCUB-M; format: functional, cell-based, Homo sapiens; details: Homo sapiens, OCUB-M;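 note: growth inhibition of the cancer cell line, read out through a cell viability assay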
Description: SANGER: Inhibition of human OCUB-M cell growth in a cell viability assay.

[20] = tested on: NCI-H2405; format: functional, cell-based, Homo sapiens; details: Homo sapiens, NCI-H2405;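 note: growth inhibition of the human cell line, read out with a cell viability assay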
Description: SANGER: Inhibition of human NCI-H2405 cell growth in a cell viability assay.

[21] = tested on: CAL-85-1; format: functional, cell-based; details: Homo sapiens;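 note: growth inhibition of human CAL-85-1 cells, read out with a cell viability assay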
Description: SANGER: Inhibition of human CAL-85-1 cell growth in a cell viability assay.

[22] = tested on: LB373-MEL-D; format: functional, cell-based, Homo sapiens; details: Homo sapiens, LB373-MEL-D;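 note: growth inhibition of the cell line, read out in a cell viability assay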
Description: SANGER: Inhibition of human LB373-MEL-D cell growth in a cell viability assay.

[23] = tested on: TE-8; format: functional, cell-based, Homo sapiens; details: Homo sapiens, TE-8;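 note: growth inhibition of TE-8 cells, measured with a cell viability readout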
Description: SANGER: Inhibition of human TE-8 cell growth in a cell viability assay.

[24] = tested on: COR-L23; format: functional, cell-based, Homo sapiens; details: Homo sapiens, COR-L23;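 note: cell viability assay measuring how strongly compounds suppress growth of COR-L23 cells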
Description: SANGER: Inhibition of human COR-L23 cell growth in a cell viability assay.

[25] = tested on: KS-1; format: functional, cell-based, Homo sapiens; details: Homo sapiens, KS-1;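 note: growth inhibition of KS-1 cells, read out with a cell viability assay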
Description: SANGER: Inhibition of human KS-1 cell growth in a cell viability assay.

[26] = tested on: JVM-3; format: functional, cell-based; details: Homo sapiens;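 note: growth inhibition of human JVM-3 cells, read out with a cell viability assay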
Description: SANGER: Inhibition of human JVM-3 cell growth in a cell viability assay.

[27] = tested on: COLO-792; format: functional, cell-based, Homo sapiens; details: Homo sapiens, COLO-792
Description: SANGER: Inhibition of human COLO-792 cell growth in a cell viability assay.

[28] = tested on: NB5; format: functional, cell-based, Homo sapiens; details: Homo sapiens, NB5;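 note: growth inhibition of NB5 cells, read out as cell viability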
Description: SANGER: Inhibition of human NB5 cell growth in a cell viability assay.

[29] = tested on: no-10; format: functional, cell-based, Homo sapiens; details: Homo sapiens;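 note: growth inhibition of no-10 cells, read out with a cell viability assay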
Description: SANGER: Inhibition of human no-10 cell growth in a cell viability assay.

[30] = tested on: C32; format: functional, cell-based, Homo sapiens; details: Homo sapiens, C32;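 note: cell viability assay, with IC50 reflecting inhibition of C32 cell growth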
Description: SANGER: Inhibition of human C32 cell growth in a cell viability assay.

[31] = tested on: LN-405; format: functional, cell-based, Homo sapiens; details: Homo sapiens, LN-405
Description: SANGER: Inhibition of human LN-405 cell growth in a cell viability assay.

[32] = tested on: J-RT3-T3-5; format: functional, cell-based; details: Homo sapiens;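 note: cell viability assay measuring growth inhibition of human J-RT3-T3-5 cells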
Description: SANGER: Inhibition of human J-RT3-T3-5 cell growth in a cell viability assay.

[33] = tested on: KINGS-1; format: functional, cell-based, Homo sapiens; details: Homo sapiens, KINGS-1;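 note: cell viability assay measuring suppression of KINGS-1 cell growth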
Description: SANGER: Inhibition of human KINGS-1 cell growth in a cell viability assay.

[34] = tested on: MG-63; format: functional, cell-based, Homo sapiens; details: Homo sapiens, MG-63;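 note: growth inhibition of human MG-63 cells, read out with a cell viability assay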
Description: SANGER: Inhibition of human MG-63 cell growth in a cell viability assay.

[35] = tested on: MPP-89; format: functional, cell-based, Homo sapiens; details: Homo sapiens, MPP-89;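 note: growth inhibition of human MPP-89 cells, read out with a cell viability assay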
Description: SANGER: Inhibition of human MPP-89 cell growth in a cell viability assay.

[36] = tested on: NCI-H82; format: functional, cell-based; details: Homo sapiens;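 note: growth inhibition of NCI-H82 cells, measured with a cell viability readout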
Description: SANGER: Inhibition of human NCI-H82 cell growth in a cell viability assay.

[37] = tested on: SAS; format: functional, cell-based, Homo sapiens; details: Homo sapiens, SAS;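 note: growth inhibition of SAS cells, read out with a cell viability assay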
Description: SANGER: Inhibition of human SAS cell growth in a cell viability assay.

[38] = tested on: ESS-1; format: functional, cell-based, Homo sapiens; details: Homo sapiens, ESS-1;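 note: growth inhibition of human ESS-1 cells, read out by a cell viability assay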
Description: SANGER: Inhibition of human ESS-1 cell growth in a cell viability assay.

[39] = tested on: KNS-42; format: functional, cell-based, Homo sapiens; details: Homo sapiens, KNS-42;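 note: growth inhibition of KNS-42 cells, read out with a cell viability assay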
Description: SANGER: Inhibition of human KNS-42 cell growth in a cell viability assay.

[40] = tested on: NCI-H292; format: functional, cell-based, Homo sapiens; details: Homo sapiens, NCI-H292;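 note: growth inhibition of NCI-H292 cells, read out with a cell viability assay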
Description: SANGER: Inhibition of human NCI-H292 cell growth in a cell viability assay.

[41] = tested on: OVCAR-8; format: functional, cell-based, Homo sapiens; details: Homo sapiens, OVCAR-8;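 note: growth inhibition of human OVCAR-8 cells, read out by a cell viability assay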
Description: SANGER: Inhibition of human OVCAR-8 cell growth in a cell viability assay.

[42] = tested on: SW872; format: functional, cell-based, Homo sapiens; details: Homo sapiens, SW872;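 note: growth inhibition of SW872 cells, read out by a viability assay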
Description: SANGER: Inhibition of human SW872 cell growth in a cell viability assay.

[43] = tested on: LAN-6; format: functional, cell-based, Homo sapiens; details: Homo sapiens, LAN-6;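 note: growth inhibition of LAN-6 cells, determined with a cell viability assay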
Description: SANGER: Inhibition of human LAN-6 cell growth in a cell viability assay.

[44] = tested on: ACN; format: functional, cell-based, Homo sapiens; details: Homo sapiens, ACN;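 note: growth inhibition of the human ACN cell line, read out via cell viability testing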
Description: SANGER: Inhibition of human ACN cell growth in a cell viability assay.

[45] = tested on: CAKI-1; format: functional, cell-based, Homo sapiens; details: Homo sapiens, CAKI-1;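 note: growth inhibition of CAKI-1 cells, measured by a cell viability assay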
Description: SANGER: Inhibition of human CAKI-1 cell growth in a cell viability assay.

[46] = tested on: AN3-CA; format: functional, cell-based; details: Homo sapiens;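 note: growth inhibition of human AN3-CA cells measured by a cell viability assay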
Description: SANGER: Inhibition of human AN3-CA cell growth in a cell viability assay.

[47] = tested on: CAL-62; format: functional, cell-based, Homo sapiens; details: Homo sapiens, CAL-62;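 note: growth inhibition of CAL-62 cells, read out with a cell viability assay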
Description: SANGER: Inhibition of human CAL-62 cell growth in a cell viability assay.

[48] = tested on: ES1; format: functional, cell-based, Homo sapiens; details: Homo sapiens, ES1;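 note: growth inhibition of ES1 cells, read out with a cell viability assay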
Description: SANGER: Inhibition of human ES1 cell growth in a cell viability assay.

[49] = tested on: NKM-1; format: functional, cell-based; details: Homo sapiens;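 note: growth inhibition of NKM-1 cells, read out with a cell viability assay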
Description: SANGER: Inhibition of human NKM-1 cell growth in a cell viability assay.

[50] = tested on: SiHa; format: functional, cell-based, Homo sapiens; details: Homo sapiens, SiHa;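 note: Viability-based readout of growth inhibition in SiHa cells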
Description: SANGER: Inhibition of human SiHa cell growth in a cell viability assay.

[51] = tested on: NCI-H358; format: functional, cell-based, Homo sapiens; details: Homo sapiens, NCI-H358;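 note: growth inhibition of NCI-H358 human cells, read out with a cell viability assay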
Description: SANGER: Inhibition of human NCI-H358 cell growth in a cell viability assay.

Measured: IC50

Cc1cnc(-c2cnc(NCCNc3ccc(C#N)cn3)nc2-c2ccc(Cl)cc2Cl)[nH]1 [LADUVIGLUSIB]
1780 nM: [2]
> 2560 nM: [1] | [3] | [4] | [5] | [6] | [7] | [8] | [9] | [10] | [12] | [13] | [14] | [15] | [16] | [17] | [18] | [19] | [20] | [21] | [22] | [23] | [24] | [25] | [26] | [27] | [28] | [29] | [30] | [31] | [32] | [33] | [34] | [35] | [36] | [37] | [38] | [39] | [40] | [41] | [42] | [43] | [44] | [45] | [46] | [47] | [48] | [49] | [50] | [51]
949 nM: [11]

CN(c1ncccc1CNc1nc(Nc2ccc3c(c2)CC(=O)N3)ncc1C(F)(F)F)S(C)(=O)=O [PF-00562271]
1290 nM: [9]
806 nM: [34]
1320 nM: [47]
1220 nM: [46]
2350 nM: [44]
1280 nM: [49]
1800 nM: [21]
> 2560 nM: [1] | [2] | [3] | [4] | [5] | [6] | [7] | [8] | [10] | [11] | [12] | [13] | [14] | [15] | [16] | [17] | [18] | [19] | [20] | [22] | [23] | [24] | [25] | [26] | [27] | [28] | [29] | [30] | [31] | [32] | [33] | [35] | [36] | [37] | [38] | [39] | [40] | [41] | [42] | [43] | [45] | [48] | [50] | [51]

From ChEMBL document CHEMBL1201861, “Genomics of Drug Sensitity in Cancer screening data, Wellcome Trust Sanger Institute”
